Earlier results in paper PMC6832141, “Synthesis and Cyclooxygenase Inhibition of Sulfonamide-Substituted (Dihydro)Pyrrolo[3,2,1-hi]indoles and Their Potential Prodrugs” (Molecules, 2019).
Where two headings read alike, the source gives them in different places.

Legend:
[1] = system: hCOX-2; details: read-out: IC50 hCOX-2; cited from earlier work
[2] = rat plasma, parecoxib leading to valdecoxib, cited from earlier work
[3] = design: method as in doi:10.1002/slct.201601618, PMID 12064545; details: reference substances for the HPLC logD method; cited from earlier work

## CCC(=O)NS(=O)(=O)c1ccc(-c2c(-c3ccccc3)noc2C)cc1 [parecoxib]
[1]
  IC50: 20 µM
[2]; ref 19
  elimination half-life T1/2: 8.1 min
[2]; ref 23
  elimination half-life T1/2: 41.4 min

## C[C@]12CCC(=O)C=C1CC[C@@H]1[C@@H]2[C@@H](O)C[C@@]2(C)[C@H]1CC[C@]2(O)C(=O)CO [Hydrocortisone]
[3]
  logD7.4 of HPLC references: 1.65
